ChEMBL document CHEMBL2440076, “New triarylpyrazoles as broad-spectrum anticancer agents: design, synthesis, and biological evaluation” (Eur J Med Chem, 2013)

Tests used:
[1] = system: BT-549; assay: Growth inhibition of human BT549 cells assessed as cell growth at 10 uM after 48 hrs by sulforhodamine B assay; format: functional; conditions: BT-549, 48 h, read-out: Activity
[2] = Growth inhibition of human Hs 578T cells assessed as cell growth at 10 uM after 48 hrs by sulforhodamine B assay; format: functional; conditions: read-out: Activity
[3] = system: UO-31; assay: Growth inhibition of human UO31 cells assessed as cell growth at 10 uM after 48 hrs by sulforhodamine B assay; format: functional; conditions: UO-31, 48 h, read-out: Activity
[4] = system: PC-3; assay: Growth inhibition of human PC3 cells assessed as cell growth at 10 uM after 48 hrs by sulforhodamine B assay; format: functional; conditions: PC-3, 48 h, read-out: Activity
[5] = system: SN12C; assay: Growth inhibition of human SN12C cells assessed as cell growth at 10 uM after 48 hrs by sulforhodamine B assay; format: functional; conditions: read-out: Activity
[6] = system: HT-29; assay: Growth inhibition of human HT-29 cells after 48 hrs by sulforhodamine B assay; format: functional; conditions: HT-29, 48 h
[7] = Growth inhibition of human HCC2998 cells after 48 hrs by sulforhodamine B assay; format: functional; conditions: HCC 2998, 48 h
[8] = system: NCI-H23; assay: Growth inhibition of human NCI-H23 cells after 48 hrs by sulforhodamine B assay; format: functional; conditions: NCI-H23, 48 h
[9] = system: A549; assay: Growth inhibition of human A549/ATCC cells after 48 hrs by sulforhodamine B assay; format: functional; conditions: A549, 48 h
[10] = system: RPMI-8226; assay: Growth inhibition of human RPMI8226 cells after 48 hrs by sulforhodamine B assay; format: functional, cell-based; conditions: RPMI-8226, 48 h
[11] = system: K562; assay: Growth inhibition of human K562 cells after 48 hrs by sulforhodamine B assay; format: functional; conditions: K562, 48 h
[12] = system: RXF 393; assay: Growth inhibition of human RXF393 cells assessed as cell growth at 10 uM after 48 hrs by sulforhodamine B assay; format: functional; conditions: RXF 393, 48 h, read-out: Activity
[13] = system: ACHN; assay: Growth inhibition of human ACHN cells assessed as cell growth at 10 uM after 48 hrs by sulforhodamine B assay; format: functional; conditions: read-out: Activity
[14] = system: 786-0; assay: Growth inhibition of human 786-0 cells assessed as cell growth at 10 uM after 48 hrs by sulforhodamine B assay; format: functional; conditions: 786-0, 48 h, read-out: Activity
[15] = system: A498; assay: Growth inhibition of human A498 cells assessed as cell growth at 10 uM after 48 hrs by sulforhodamine B assay; format: functional; conditions: A498, 48 h, read-out: Activity
[16] = system: SK-OV-3; assay: Growth inhibition of human SKOV3 cells assessed as cell growth at 10 uM after 48 hrs by sulforhodamine B assay; format: functional; conditions: SK-OV-3, 48 h, read-out: Activity
[17] = system: OVCAR-3; assay: Growth inhibition of human OVCAR3 cells assessed as cell growth at 10 uM after 48 hrs by sulforhodamine B assay; format: functional; conditions: OVCAR-3, 48 h, read-out: Activity
[18] = system: UACC-62; assay: Growth inhibition of human UACC62 cells assessed as cell growth at 10 uM after 48 hrs by sulforhodamine B assay; format: functional; conditions: UACC-62, 48 h, read-out: Activity
[19] = system: UACC-257; assay: Growth inhibition of human UACC257 cells assessed as cell growth at 10 uM after 48 hrs by sulforhodamine B assay; format: functional; conditions: UACC-257, 48 h, read-out: Activity
[20] = system: SK-MEL-5; assay: Growth inhibition of human SK-MEL-5 cells assessed as cell growth at 10 uM after 48 hrs by sulforhodamine B assay; format: functional; conditions: SK-MEL-5, 48 h, read-out: Activity
[21] = system: SK-MEL-2; assay: Growth inhibition of human SK-MEL-2 cells assessed as cell growth at 10 uM after 48 hrs by sulforhodamine B assay; format: functional; conditions: SK-MEL-2, 48 h, read-out: Activity
[22] = system: SNB-19; assay: Growth inhibition of human SNB19 cells assessed as cell growth at 10 uM after 48 hrs by sulforhodamine B assay; format: functional; conditions: SNB-19, 48 h, read-out: Activity
[23] = system: HCT-116; assay: Growth inhibition of human HCT116 cells assessed as cell growth at 10 uM after 48 hrs by sulforhodamine B assay; format: functional; conditions: HCT-116, 48 h, read-out: Activity
[24] = system: MDA-MB-468; assay: Growth inhibition of human MDA-MB-468 cells after 48 hrs by sulforhodamine B assay; format: functional, cell-based; conditions: MDA-MB-468, 48 h
[25] = system: T47D; assay: Growth inhibition of human T47D cells after 48 hrs by sulforhodamine B assay; format: functional
[26] = system: DU-145; assay: Growth inhibition of human DU145 cells after 48 hrs by sulforhodamine B assay; format: functional; conditions: DU-145, 48 h
[27] = system: TK-10; assay: Growth inhibition of human TK10 cells after 48 hrs by sulforhodamine B assay; format: functional; conditions: TK-10, 48 h
[28] = system: SK-OV-3; assay: Growth inhibition of human SKOV3 cells after 48 hrs by sulforhodamine B assay; format: functional; conditions: SK-OV-3, 48 h
[29] = system: SK-MEL-5; assay: Growth inhibition of human SK-MEL-5 cells after 48 hrs by sulforhodamine B assay; format: functional; conditions: SK-MEL-5, 48 h
[30] = system: SK-MEL-28; assay: Growth inhibition of human SK-MEL-28 cells after 48 hrs by sulforhodamine B assay; format: functional; conditions: SK-MEL-28, 48 h
[31] = system: SNB-75; assay: Growth inhibition of human SNB75 cells after 48 hrs by sulforhodamine B assay; format: functional; conditions: SNB-75, 48 h
[32] = system: U-251; assay: Growth inhibition of human U251 cells after 48 hrs by sulforhodamine B assay; format: functional; conditions: U-251, 48 h
[33] = system: SF-539; assay: Growth inhibition of human SF539 cells after 48 hrs by sulforhodamine B assay; format: functional; conditions: SF-539, 48 h
[34] = system: HL-60(TB); assay: Growth inhibition of human HL-60(TB) cells assessed as cell growth at 10 uM after 48 hrs by sulforhodamine B assay; format: functional; conditions: HL-60, 48 h, read-out: Activity
[35] = read-out: LC50 (the source's name)

## COc1cc(-c2nn(-c3cccc(NC(=O)Nc4cccc(C(F)(F)F)c4)c3)cc2-c2ccncc2)ccc1Cl
[1]
  growth at 10 µM: -15.4%
[2]
  growth at 10 µM: -13.7%
[3]
  growth at 10 µM: 7.94%
[4]
  growth at 10 µM: -23%
[5]
  growth at 10 µM: 7.22%
[6]
  GI50: 748 nM
  TGI: 1870 nM
[6]; [35]
  CC50: 4670 nM
[7]
  GI50: 1190 nM
  TGI: 3200 nM
[7]; [35]
  CC50: 15300 nM
[8]
  GI50: 1180 nM
  LC50: > 50000 nM
  TGI: 3410 nM
[9]
  GI50: 794 nM
  LC50 (concentration killing 50% of starting cells): > 50000 nM
  TGI: > 50000 nM
[10]
  GI50: 340 nM
  IC50: 340 nM
  TGI: 3120 nM
[10]; [35]
  CC50: > 50000 nM
[11]
  GI50: 584 nM
  TGI: > 50000 nM
[11]; [35]
  CC50: > 50000 nM
[12]
  growth at 10 µM: -69.8%
[13]
  growth at 10 µM: 6.54%
[14]
  growth at 10 µM: -15%
[15]
  growth at 10 µM: -5.17%
[16]
  growth at 10 µM: 4.13%
[17]
  growth at 10 µM: -42%
[18]
  growth at 10 µM: -76.1%
[19]
  growth at 10 µM: -52.9%
[20]
  growth at 10 µM: -97.8%
[21]
  growth at 10 µM: -71.2%
[22]
  growth at 10 µM: 23.5%
[23]
  growth at 10 µM: 0.06%
[24]
  GI50: 598 nM
  IC50: 600 nM
  TGI: 2160 nM
[24]; [35]
  CC50: 50000 nM
[25]
  GI50: 1650 nM
  TGI: > 50000 nM
[25]; [35]
  CC50: 50000 nM
[26]
  GI50: 1670 nM
  LC50: > 50000 nM
  TGI: > 50000 nM
[27]
  GI50: 1310 nM
  TGI: 19000 nM
[27]; [35]
  CC50: > 50000 nM
[28]
  GI50: 2020 nM
  TGI: > 50000 nM
[28]; [35]
  CC50: > 50000 nM
[29]
  GI50: 720 nM
  LC50 (concentration killing 50% of cells): 2680 nM
  TGI: 1390 nM
[30]
  GI50: 1120 nM
  LC50: 21100 nM
  TGI: 3350 nM
[31]
  GI50: 1160 nM
  LC50 (lethal concentration, 50% net cell kill): 50000 nM
  TGI: 4500 nM
[32]
  GI50: 645 nM
  LC50 (concentration killing 50% of cells): 2920 nM
  TGI: 1370 nM
[33]
  GI50: 890 nM
  LC50 (concentration killing 50% of cells): 21000 nM
  TGI: 2420 nM
[34]
  growth at 10 µM: -18.7%
